Experimental data taken from patent US20240148780A1, “COMPOSITION AND USE OF AN OPHTHALMIC SOLUTION BASED ON HYALURONIC ACID AND ARABINOGALACTAN” (MD ITALY SRL, priority 2019, published 2024).

What was measured:
[1] = system: isolated hepatocytes and microsomal fractions from rat liver; conditions: compared with an equivalent amount of directly-added free alpha-tocopherol; cited from earlier work
xanthine oxidase [2] = target: T1, xanthine oxidase (Homo sapiens, UniProt P47989); assay: Xanthine oxidase (XOD) reaction inhibition: formation of uric acid; assay type: biochemical
T1 sequence (P47989 whole entry, species assumed): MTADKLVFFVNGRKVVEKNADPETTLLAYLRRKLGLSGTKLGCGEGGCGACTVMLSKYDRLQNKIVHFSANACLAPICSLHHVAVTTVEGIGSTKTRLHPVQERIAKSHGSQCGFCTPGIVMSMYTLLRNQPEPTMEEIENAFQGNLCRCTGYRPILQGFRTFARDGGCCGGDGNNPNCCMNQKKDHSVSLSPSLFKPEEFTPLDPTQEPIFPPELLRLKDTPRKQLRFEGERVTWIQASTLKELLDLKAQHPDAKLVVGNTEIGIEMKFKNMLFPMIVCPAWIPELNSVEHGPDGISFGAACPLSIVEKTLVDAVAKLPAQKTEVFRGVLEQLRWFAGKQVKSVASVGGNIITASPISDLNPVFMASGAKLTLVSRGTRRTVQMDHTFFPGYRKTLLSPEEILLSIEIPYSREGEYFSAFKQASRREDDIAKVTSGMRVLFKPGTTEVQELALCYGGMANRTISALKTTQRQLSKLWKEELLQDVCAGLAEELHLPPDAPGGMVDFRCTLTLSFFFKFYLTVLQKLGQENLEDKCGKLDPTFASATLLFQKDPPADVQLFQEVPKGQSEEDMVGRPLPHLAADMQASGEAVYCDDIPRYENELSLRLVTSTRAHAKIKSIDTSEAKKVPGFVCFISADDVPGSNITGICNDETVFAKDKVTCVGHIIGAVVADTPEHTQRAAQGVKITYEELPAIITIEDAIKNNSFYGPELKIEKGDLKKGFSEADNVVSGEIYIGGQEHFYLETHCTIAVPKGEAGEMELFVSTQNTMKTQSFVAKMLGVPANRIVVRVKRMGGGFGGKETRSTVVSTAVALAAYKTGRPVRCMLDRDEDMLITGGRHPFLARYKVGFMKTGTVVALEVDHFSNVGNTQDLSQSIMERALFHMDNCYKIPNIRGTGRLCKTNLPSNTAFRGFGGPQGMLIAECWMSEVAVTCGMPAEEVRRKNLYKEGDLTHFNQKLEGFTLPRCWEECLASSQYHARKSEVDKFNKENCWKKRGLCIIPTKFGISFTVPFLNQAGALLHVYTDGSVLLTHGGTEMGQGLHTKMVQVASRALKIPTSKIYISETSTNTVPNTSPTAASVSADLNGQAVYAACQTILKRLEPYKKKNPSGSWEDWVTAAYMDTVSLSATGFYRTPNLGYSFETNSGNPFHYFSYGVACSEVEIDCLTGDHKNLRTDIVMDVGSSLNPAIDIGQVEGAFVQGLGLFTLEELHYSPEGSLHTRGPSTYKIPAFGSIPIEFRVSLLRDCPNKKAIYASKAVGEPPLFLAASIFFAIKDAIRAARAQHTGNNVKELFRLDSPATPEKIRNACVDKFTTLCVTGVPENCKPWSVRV
Procedure: The effect of arabinogalactan, hyaluronic acid and the association thereof was investigated by monitoring the formation of uric acid over time (0, 1, 5, 10, 15, 30 min). Uric acid concentration was determined at 291 nm using a DR6000 UV spectrophotometer (Hach, Lange). The absorbance value is related to the concentration by means of the Lambert-Beer law:
where A is the absorbance of uric acid at 291 nm, ε is the molar absorption coefficient, b is the optical path (thickness of the cuvette in which the solution is contained) and C is the uric acid concentration.
The blank/control consists of: 50 μM xanthine, 10 mg L^−1 of xanthine oxidase (XO) (0.00016 μUI of enzyme) in borate buffer solution (see table 3) 7.2≤pH≤7.8). The effect of the components of the eye drops was investigated by adding the individual components to the blank solution: respectively • (i) 0.4% (w/w) of arabinogalactan (AG) • (ii) 0.15% (w/w) of hyaluronic acid (HA) • (iii) association of 0.4% (w/w) of AG+0.15% (w/w) of HA (mix AG+HA). • (iii) Eye drops corresponding to the formulation of Tab.3.
All the tests were conducted at least in triplicate.
The uric acid formation reductions were calculated as: […]
where C30-(i) is the final concentration (30 min) of uric acid in the i-th test and C30-control is the uric acid concentration at 30 min in the blank (control).
Furthermore, the inhibition evaluation reported above was also carried out in borate buffer for arabinogalactan, for hyaluronic acid and for the association thereof, and finally for the eye drops formulation of the present invention, also comprising panthenol, vitamin E-TGPS and trehalose.

xanthine oxidase [3] = target: T1, xanthine oxidase; assay: Superoxide anion production by xanthine oxidase, detected by ferrocytochrome C reduction; assay type: biochemical; conditions: xanthine oxidase reaction
Description: Any inhibition is particularly important because the superoxide anion production is at the origin, at least in part, of the inflammatory phenomena of the ocular surface. The superoxide anion produced by xanthine oxidase in the oxidation reaction of xanthine was detected by the reduction of […] to […] by the same superoxide anion (O2^−·) (Fridovich). The reaction is reported here for clarity:
Fe^3+Cit.C+Superoxide Anion-----→Fe^2+Cit.C
The effect of arabinogalactan, hyaluronic acid, and the association thereof on superoxide anion production over time (0, 1, 5, 10, 15, 30 min) was investigated. The production of superoxide anion was determined by the reduction of ferrocytochrome C (3+) to ferrocytochrome C (2+), monitoring absorption at 551 nm using a DR6000 UV spectrophotometer (Hach, Lange). The tests for the determination of superoxide anion production were carried out still using the xanthine oxidase reaction used previously.
Produced by the superoxide anion, the ferrocytochrome C was calculated considering a molar absorption equal to 2.1×10^4 M^−1·cm^−1 (Ref. 16-17). The superoxide inhibition evaluation reported above was performed for arabinogalactan, hyaluronic acid, and the association thereof. Furthermore, the eye drops formulation of the present invention was also evaluated, also comprising panthenol, vitamin E-TGPS and trehalose.

[4] = Rheology, plate viscometer in oscillation mode (G″, G′); assay type: physicochemical; conditions: HA 0.15% w/w, AG 0.4% w/w
Procedure: In addition to the evaluation of the effect of arabinogalactan, hyaluronic acid and the association thereof on xanthine oxidase activity and in order to characterize the possible interaction thereof, to justify the inhibitory effect thereof, rheology measurements were carried out with the hypothesis that the two macrostructures, arabinogalactan on the one hand and hyaluronic acid on the other, could modify the rheological trend of the formulation of the present invention.
With reference to FIG. 3, the characterization of the following solutions was carried out using an AM Instruments Plate Viscometer, in Oscillation Mode. The following solutions were measured: • Sample 1: Hyaluronic acid solution at 0.15% w/w • Sample 2: Arabinogalactan solution 0.4% +Hyaluronic acid 0.15% w/v • Sample 3: Arabinogalactan solution 0.4% w/w.
1: Hyaluronic acid 0.15% w/w • Solution no. 2: Arabinogalactan 0.4%+hyaluronic acid 0.15% w/w • Solution no. 3: Arabinogalactan 0.4% w/w • Interpretation of the Results: […]

[5] = Viscosity as a function of shear rate, plate viscometer; assay type: physicochemical
Procedure: Given the results obtained, the characterization was further extended to determine the viscosity as a function of the shear rate, always using a Plate Viscometer, in particular the following solutions were measured. • Sample 1: Hyaluronic acid • Sample 2: Hyaluronic acid+Arabinogalactan • Sample 3: Eye drops A • Sample 4: Arabinogalactan
The description of the graph can be further exemplified by the following table which reports the viscosity values (mPa·s$) at 10[1/s] at a fixed point corresponding to A.

For `Cc1c(C)c2c(c(C)c1OC(=O)CCC(=O)O)CC[C@@](C)(CCC[C@H](C)CCC[C@H](C)CCCC(C)C)O2` [TS, alpha-tocopherol succinate, reference compound], the Antioxidant protection [1] is given as “more effective antioxidant protection than an equivalent amount of directly-added free alpha-tocopherol”.
In the case of Hyaluronic acid, the “Uric acid μM produced in 30 minutes” value (xanthine oxidase [2]; 50 μM xanthine, 10 mg L−1 xanthine oxidase, borate buffer, AG 0.4% w/w, HA 0.15% w/w, 30 min) is reported as 15.3 µM, the “Inhibition % of uric acid production” value (xanthine oxidase [2]; 50 μM xanthine, 10 mg L−1 xanthine oxidase, borate buffer, AG 0.4% w/w, HA 0.15% w/w, 30 min vs blank) is reported as 0% and the “Uric acid μM produced per minute” value (xanthine oxidase [2]; per minute, same reaction, linear kinetics assumed) is reported as 0.51 µM. For the same molecule, the “Fe+2 Cit.C μM produced per minute” value (xanthine oxidase [3]; per minute) was 0.42 µM, the “Fe+2 Cit.C μM produced in 30 minutes” value (xanthine oxidase [3]; 551 nm, 30 min) was 12.6 µM and the “Inhibition % of Fe+2 Cit.C production (superoxide anion)” value (xanthine oxidase [3]; 551 nm, 30 min vs control) was 17.2%. The “Trend of G″ (Loss Modulus Viscosity)” value [4] was “always with a value higher than the other measured solutions”, the “Viscosity trend as a function of shear rate” value ([5]; FIG. 4) was “linear trend (Newtonian) higher viscosity” and the Viscosity ([5]; at 10 [1/s], fixed point) was 1.50 mPa·s.
In the case of “alpha-tocopherol polyethylene glycol 1000 succinate [TPGS]”, the Antioxidant protection [1] is given as “more effective antioxidant protection than an equivalent amount of directly-added free alpha-tocopherol”.
